Experimental data from PMC6316600, “Analgesic Activity of Acid-Sensing Ion Channel 3 (ASIС3) Inhibitors: Sea Anemones Peptides Ugr9-1 and APETx2 versus Low Molecular Weight Compounds” (Marine Drugs, 2018).
Bridge positions count the residues as written; N and C are the ends. Peptide text beside a SMILES is read from it.

Key:
[1] = test system: CFA-induced thermal hyperalgesia; conditions: cited from earlier work
Description: An inhibition of ASIC3 was reported to be an attractive approach to producing analgesia. […] Other nonspecific substances can also influence ASIC3 activity. […] Several ligands with inhibitory properties were found for this receptor, each of which was able to induce analgesia in animal tests. The most well-known inhibitor APETx2 in various studies has been tested on models of acid-induced muscle pain model, CFA-induced inflammatory pain model (at doses of 0.07, 0.22 and 2.2 µM). Ugr9-1 was studied in models of CFA-induced thermal hyperalgesia and acetic acid writhing test (at doses of 0.5, 0.1, and 0.01 mg/kg). […] The nonspecific actions on other cellular targets and the changes of ASIC3 involvement in the inflammatory process induced by the high antagonists’ concentration for 2 h are suspected. We conclude that the inhibition of both components of ASIC3 currents could be beneficial but could be reversed by hormesis in high doses and during a long exposure to ...

animal models of pain = conditions: cited from earlier work
mice = test: Open field test; type: in vivo, CD-1 mice; conditions: 1 mg/kg intramuscular, 4 h before; n = 6–7
Description: An open field test was carried out on mice to estimate the possible sedative effects of compounds administration. No statistically significant changes were detected between ASIC3 antagonist-treated groups and the control animals group in 5-min observations of 12 parameters.
Figure 2 Open field experiments on mice. Administration of compounds at a 1 mg/kg dose intramuscularly was done 4 h before of the measurements. (A) Travelling distance and (B) locomotion activity presented as mean ± SEM for 5-min recording period (n = 6–7).
Adult male CD-1 mice (Animal Breeding Facility Branch of Shemyakin-Ovchinnikov Institute of Bioorganic Chemistry, Russian Academy of Sciences, Pushchino, Russia) weighing 20–25 g were used. Animals that originally passed clinical examination that confirmed no deviations in health were divided into groups (at least eight male mice per group) using the principle of randomization. The average body weight of animals in each group was not statistically different between groups. Animals were housed at room temperature (23 ± 2 °C) and subjected to a 12-h light-dark cycle with food and water available ad libitum. All experiments were performed after receiving approval from the Animal Care and Use Committee of the Branch of the Institute of Bioorganic Chemistry, Russian Academy of Sciences (IBCh RAS) (Pushchino, Russia Federation). The samples were administered intramuscularly 2 h before testing (4 h in the open field test). The initial dose of 1 mg/kg was investigated for all samples, which was further reduced 5, 50, and 500 times for peptides.
In the locomotion measurements, exploration and anxiety were evaluated in the motor activity test on a computerized TSE Multi Conditioning System (TSE Systems GmbH, Bad Homburg, Germany). Four hours after the administration of the sample, the measurement was made, which lasted for 3 min. […]
The data significance in animal tests was determined by an analysis of variance followed by a Tukey’s test. […]

acetic acid writhing = conditions: cited from earlier work
Description: ASIC3 channels play an important role in the perception and maintenance of pain signals in peripheral neurons. Several ligands with inhibitory properties were found for this receptor, each of which was able to induce analgesia in animal tests. The most well-known inhibitor APETx2 in various studies has been tested on models of acid-induced muscle pain model, CFA-induced inflammatory pain model (at doses of 0.07, 0.22 and 2.2 µM). Ugr9-1 was studied in models of CFA-induced thermal hyperalgesia and acetic acid writhing test (at doses of 0.5, 0.1, and 0.01 mg/kg). […] The nonspecific actions on other cellular targets and the changes of ASIC3 involvement in the inflammatory process induced by the high antagonists’ concentration for 2 h are suspected. We conclude that the inhibition of both components of ASIC3 currents could be beneficial but could be reversed by hormesis in high doses and during a long exposure to ...

[2] = cited from earlier work
Source text: Several explanations could be proposed. First, the result of partial ASIC1a inhibition is unpredictable. Second, better bioavailability of sevanol compared with Ugr9-1 can enhance the effect. Peptides from sea anemones have rather shor ...

ASIC1a = conditions: cited from earlier work
Source text: An inhibition of ASIC3 was reported to be an attractive approach to producing analgesia. […] Other nonspecific substances can also influence ASIC3 activity.

[3] = intravenous, 30 min before testing

SMILES	Dose dependence, CFA thermal hyperalgesia test [1, 3]	Analgesic effect (animal models of pain; 0.1–0.5 mg/kg)	Travelled distance, time spent freezing, distance in the central area versus control (mice)	Efficacy in acetic acid writhing test (acetic acid writhing; [3])	Effect on CFA-induced thermal hyperalgesia ([1]; 100 mg/kg i.p.)	Circulating half-life [2]	Time of final elimination from the blood flow [2] [h]	Effect on acetic acid-induced writhing (acetic acid writhing; 20 mg/kg i.p.)	Analgesic and anti-inflammatory effect (animal models of pain; mice, 1–10 mg/kg)	Inhibition of ASIC1a (ASIC1a)
CC[C@H](C)[C@H](N)C(=O)N[C@@H](CO)C(=O)N[C@H](C(=O)N[C@@H](CC(=O)O)C(=O)N1CCC[C@H]1C(=O)N1CCC[C@H]1C(=O)N[C@H]1CSSC[C@@H](C(=O)NCC(=O)N[C@@H](C)C(=O)N[C@H](C(=O)O)C(C)C)NC(=O)CNC(=O)[C@H](Cc2ccc(O)cc2)NC(=O)[C@H](C)NC(=O)[C@H](CC(=O)O)NC(=O)[C@H](Cc2ccc(O)cc2)NC(=O)[C@H](C(C)C)NC(=O)[C@@H]2CSSC[C@H](NC(=O)[C@H](Cc3ccccc3)NC(=O)[C@H](CCCNC(=N)N)NC1=O)C(=O)N[C@@H](Cc1ccc(O)cc1)C(=O)N[C@@H](Cc1c[nH]cn1)C(=O)N[C@@H](CCCNC(=N)N)C(=O)N[C@@H](CC(=O)O)C(=O)NCC(=O)N[C@@H](CO)C(=O)NCC(=O)N[C@@H](CC(N)=O)C(=O)N2)[C@@H](C)CC [Ugr9-1] (H-ISIDPPCRFCYHRDGSGNCVYDAYGCGAV-OH; disulfide 7-26, 10-19; N-terminus and C-terminus assumed)	clearly dose-dependent	significant analgesic effect	each of these differences was nonsignificant	~ 50%	–	–	–	–	–	–
O=C(O)Cc1ccccc1Nc1c(Cl)cccc1Cl [diclofenac, reference compound]	–	–	–	–	significantly reduced CFA-induced thermal hyperalgesia	about 2 h	10	inhibited acetic acid-induced writhing	–	–
O=C(O)C[C@H](C(=O)O)[C@@H](OC(=O)C1=Cc2cc(O)c(O)cc2[C@@H](c2ccc(O)c(O)c2)[C@@H]1C(=O)O[C@@H](C(=O)O)[C@H](CC(=O)O)C(=O)O)C(=O)O [sevanol]	–	–	each of these differences was nonsignificant	–	–	–	–	–	pronounced analgesic and anti-inflammatory activity	able to inhibit ASIC1a
